Test results reported in patent US10633338B2, “Binding Function 3 (BF3) site compounds as therapeutics and methods for their use” (THE UNIVERSITY OF BRITISH COLUMBIA, priority 2014, dated 2020).
Where two headings read alike, the source gives them in different places.

Experiments:
androgen receptor (AR) = biological target: T1, androgen receptor (AR) (Homo sapiens, UniProt P10275, T878A); experiment: eGFP cellular AR transcription assay; type: cell-based
T1 construct: stably transfected eGFP-expressing LNCaP human prostate cancer cells (LN-ARR2PB-eGFP) containing an androgen responsive probasin-derived promoter; endogenous in cells; host or cells: LNCaP (LN-ARR2PB-eGFP)
T1 sequence (P10275 1-920 T878A): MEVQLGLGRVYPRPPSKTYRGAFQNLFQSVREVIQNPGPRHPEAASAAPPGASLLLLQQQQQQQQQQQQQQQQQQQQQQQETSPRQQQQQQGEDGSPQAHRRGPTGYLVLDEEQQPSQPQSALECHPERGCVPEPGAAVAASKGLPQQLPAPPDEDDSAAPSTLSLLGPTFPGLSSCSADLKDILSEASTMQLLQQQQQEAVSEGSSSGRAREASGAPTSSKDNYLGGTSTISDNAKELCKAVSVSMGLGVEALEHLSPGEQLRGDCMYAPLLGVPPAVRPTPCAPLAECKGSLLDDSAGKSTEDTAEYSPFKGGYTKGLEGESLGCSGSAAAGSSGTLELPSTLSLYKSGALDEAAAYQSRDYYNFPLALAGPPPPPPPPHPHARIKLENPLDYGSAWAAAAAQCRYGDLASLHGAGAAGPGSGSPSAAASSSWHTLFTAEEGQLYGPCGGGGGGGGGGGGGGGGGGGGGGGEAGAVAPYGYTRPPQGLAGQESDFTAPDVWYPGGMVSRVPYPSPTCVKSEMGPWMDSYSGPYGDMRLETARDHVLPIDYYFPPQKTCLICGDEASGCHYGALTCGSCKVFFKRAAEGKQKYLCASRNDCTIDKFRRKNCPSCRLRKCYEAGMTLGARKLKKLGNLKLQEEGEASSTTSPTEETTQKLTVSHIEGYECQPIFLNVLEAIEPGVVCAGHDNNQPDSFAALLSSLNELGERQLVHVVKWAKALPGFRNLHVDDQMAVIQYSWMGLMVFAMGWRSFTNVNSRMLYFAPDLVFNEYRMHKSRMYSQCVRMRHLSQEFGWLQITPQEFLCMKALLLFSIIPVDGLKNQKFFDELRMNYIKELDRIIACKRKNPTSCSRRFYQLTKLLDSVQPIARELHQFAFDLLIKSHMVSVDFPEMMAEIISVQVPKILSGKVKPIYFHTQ
How it was run: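 AR transcriptional activity is read as eGFP expression from a probasin-derived androgen-responsive promoter. Compound titrated 0-100 μM in the presence of 0.1 nM R1881; 35,000 cells/well.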

PSA = experiment: Prostate Surface Antigen (PSA) assay, PSA excreted into the media; type: cell-based, human; details: same plates as eGFP assay
Procedure: The evaluation of PSA excreted into the media was performed in parallel to the eGFP assay using the same plates (see above description). After the cells were incubated for 3 days 150 μl of the media was taken from each well, and added to 150 μl of PBS.

[1] = LN-ARR2PB-eGFP LNCaP cells, 0.1 nM R1881, 3 days, 0-100 μM compound, read-out: IC50 (eGFP)
[2] = Homo sapiens, 72 h, media after 3 days, read-out: IC50 (PSA)
[3] = LN-ARR2PBeGFP LNCaP cells, 0.1 nM R1881, 3 days incubation, read-out: eGFP IC50
[4] = Homo sapiens, 72 h, PSA excreted into media, 3 days incubation, read-out: PSA IC50
[5] = LN-ARR2PBeGFP LNCaP cells, 0.1 nM R1881, 3 days incubation
[6] = PSA excreted into media, 3 days incubation
[7] = LN-ARR2PB-eGFP LNCaP cells, 0.1 nM R1881, 3 days, 0-100 μM compound

Question: With `CC1(C)c2ccccc2NC1c1c[nH]c2ncccc12` (stereo not drawn) [13 556] as the molecule, how does the IC50 (androgen receptor (AR); [1]) read?
Answer: 2100 nM

Question: And the IC50 (PSA; [2])?
Answer: 2180 nM

Question: How did the IC50 (androgen receptor (AR); [3]) turn out when `Fc1ccc2nc(-c3c[nH]c4c(F)c(F)c(F)cc34)cnc2c1` [Compound 13762] was run?
Answer: 479 nM

Question: And the IC50 (PSA; [4])?
Answer: 429 nM

Question: `Fc1cccc2ccc(Cl)nc12` [Compound 13729] was tested. Which “eGFP IC50” value (androgen receptor (AR); [5]) did it give?
Answer: Inactive

Question: And the “PSA IC50” value (PSA; [6])?
Answer: Inactive

Question: How did the IC50 (androgen receptor (AR); [3]) turn out when `c1ccc2nc(-c3c[nH]c4ccccc34)ccc2c1` [Compound 13562] was run?
Answer: 60 nM

Question: And the IC50 (PSA; [4])?
Answer: 140 nM

Question: How did the IC50 (androgen receptor (AR); [3]) turn out when `CNC(=O)c1cccc2nc(-c3c[nH]c4c(C#N)cc(F)cc34)ccc12` [Compound 13731] was run?
Answer: 304 nM

Question: And the IC50 (PSA; [4])?
Answer: 255 nM

Question: With `COc1ccc(Br)cc1-c1c[nH]c2ccccc12` [13 638] as the molecule, how does the “IC50 (eGFP)” value (androgen receptor (AR); [7]) read?
Answer: IC50 (eGFP) = Inactive

Question: What about the “IC50 (PSA)” value (PSA; media after 3 days) of the same molecule?
Answer: IC50 (PSA) = Inactive

Question: With `Oc1cc2ccccc2cc1-c1nc2ccccc2[nH]1` [13 687] as the molecule, how does the “IC50 (eGFP)” value (androgen receptor (AR); [7]) read?
Answer: IC50 (eGFP) = Inactive

Question: What about the “IC50 (PSA)” value (PSA; media after 3 days) of the same molecule?
Answer: IC50 (PSA) = Inactive

Question: What does the source list for `Fc1ccc2cc[nH]c2c1Cl` [Compound 13725]?
Answer: eGFP IC50 (androgen receptor (AR); [5]): Inactive; PSA IC50 (PSA; [6]): Inactive

Question: Which IC50 (androgen receptor (AR); [1]) does the source give for `COC(=O)c1cccc2c(-c3ccc(Br)cc3)c[nH]c12` [13 736] here?
Answer: 620 nM

Question: And the IC50 (PSA; [2])?
Answer: 680 nM

Question: Which results are given for `Fc1cc(F)c2[nH]cc(-c3ccc4c(F)cccc4n3)c2c1` [Compound 13671]?
Answer: eGFP IC50 (androgen receptor (AR); [5]): Inactive; PSA IC50 (PSA; [6]): Inactive

Question: For `CC1(C)c2ccccc2NC1c1c[nH]c2ccc(Br)cc12` (stereo not drawn) [Compound 13510], which IC50 (androgen receptor (AR); [3]) is on record?
Answer: 2500 nM

Question: And the IC50 (PSA; [4])?
Answer: 1540 nM

Question: Which IC50 (androgen receptor (AR); [3]) does the source give for `CN1c2ccccc2C[C@@H]1c1c[nH]c2ccccc12` [Compound 13164-B] here?
Answer: 1300 nM

Question: And the IC50 (PSA; [4])?
Answer: 1590 nM

Question: `c1ccc2c(c1)C[C@@H](c1c[nH]c3ccccc13)N2` [Compound 13163-A] was tested. Which IC50 (androgen receptor (AR); [3]) did it give?
Answer: 480 nM

Question: And the IC50 (PSA; [4])?
Answer: 160 nM

Question: What does the source list for `Brc1ccc2c(-c3ccc4ccccc4n3)c[nH]c2c1` [Compound 13568]?
Answer: IC50 (androgen receptor (AR); [3]): 1300 nM; IC50 (PSA; [4]): 1560 nM

Question: For `Fc1cccc2ccc(-c3c[nH]c4ccccc34)nc12` [Compound 13688], which IC50 (androgen receptor (AR); [3]) is on record?
Answer: 69 nM

Question: What about the IC50 (PSA; [4]) of the same molecule?
Answer: 68 nM

Question: What does the source list for `Cc1c(F)ccc2c(-c3ccc4ccc(F)cc4n3)c[nH]c12` [Compound 13646]?
Answer: IC50 (androgen receptor (AR); [3]): 179 nM; IC50 (PSA; [4]): 224 nM

Question: What does the source list for `Cc1cccc2c(-c3ccc4ccccc4c3)c[nH]c12` [Compound 13591]?
Answer: IC50 (androgen receptor (AR); [3]): 42 nM; IC50 (PSA; [4]): 85 nM

Question: For `NC(=O)c1cccc2nc(-c3c[nH]c4c(Cl)cc(F)cc34)ccc12` [Compound 13746], which “eGFP IC50” value (androgen receptor (AR); [5]) is on record?
Answer: Inactive

Question: What about the “PSA IC50” value (PSA; [6]) of the same molecule?
Answer: Inactive

Question: With `CC1(C)c2cc(Br)ccc2NC1c1c[nH]c2ccccc12` (stereo not drawn) [Compound 13511] as the molecule, how does the IC50 (androgen receptor (AR); [3]) read?
Answer: 3000 nM

Question: What about the IC50 (PSA; [4]) of the same molecule?
Answer: 1900 nM

Question: `CC1(C)c2ccccc2NC1c1c[nH]c2ncccc12` (stereo not drawn) [Compound 13556] was tested. Which IC50 (androgen receptor (AR); [3]) did it give?
Answer: 2110 nM

Question: And the IC50 (PSA; PSA excreted into media, 3 days incubation, read-out: PSA IC50)?
Answer: 2180 nM

Question: What does the source list for `Cc1ccc2[nH]cc(C3Nc4ccccc4C34CCCCC4)c2c1` (stereo not drawn) [13 548]?
Answer: IC50 (androgen receptor (AR); [1]): 3200 nM; IC50 (PSA; [2]): 4240 nM

Question: With `Cc1cccc2c(-c3ccc4ncsc4c3)c[nH]c12` [Compound 13757] as the molecule, how does the “eGFP IC50” value (androgen receptor (AR); [5]) read?
Answer: Inactive

Question: And the “PSA IC50” value (PSA; [6])?
Answer: Inactive

Question: How did the IC50 (androgen receptor (AR); [1]) turn out when `Cn1ccc2cc(-c3ccc4ccccc4c3)ccc21` [13 756] was run?
Answer: 2000 nM

Question: And the IC50 (PSA; [2])?
Answer: 1490 nM

Question: `Cc1cccc2c(-c3cccnc3)c[nH]c12` [13 655] was tested. Which IC50 (androgen receptor (AR); [1]) did it give?
Answer: 1660 nM

Question: And the IC50 (PSA; [2])?
Answer: 610 nM

Question: With `c1ccc2nc(-c3c[nH]c4cnccc34)ccc2c1` [13 583] as the molecule, how does the IC50 (androgen receptor (AR); [1]) read?
Answer: 1100 nM

Question: And the IC50 (PSA; [2])?
Answer: 930 nM

Question: `Cc1cc(F)cc2c(-c3ccc4ccc(F)cc4n3)n[nH]c12` [Compound 13704] was tested. Which IC50 (androgen receptor (AR); [3]) did it give?
Answer: 350 nM

Question: What about the IC50 (PSA; [4]) of the same molecule?
Answer: 169 nM

Question: How did the IC50 (androgen receptor (AR); [3]) turn out when `CNC(=O)c1cccc2nc(-c3c[nH]c4cc(F)c(F)cc34)ccc12` [Compound 13645] was run?
Answer: 261 nM

Question: And the IC50 (PSA; [4])?
Answer: 247 nM

Question: `Cc1cccc2c(-c3nc4ccccc4cc3O)c[nH]c12` [Compound 13661] was tested. Which “eGFP IC50” value (androgen receptor (AR); [5]) did it give?
Answer: Inactive

Question: And the “PSA IC50” value (PSA; [6])?
Answer: Inactive

Question: For `Fc1cc(F)c2[nH]cc(-c3ccc4c(Cl)cccc4n3)c2c1` [Compound 13672], which “eGFP IC50” value (androgen receptor (AR); [5]) is on record?
Answer: Inactive

Question: What about the “PSA IC50” value (PSA; [6]) of the same molecule?
Answer: Inactive

Question: What does the source list for `Oc1cccc2c(C3Nc4ccccc4C34CCCCC4)c[nH]c12` (stereo not drawn) [13 552]?
Answer: IC50 (androgen receptor (AR); [1]): 1100 nM; IC50 (PSA; [2]): 1140 nM
